According to the supplement of paper PMC8671470:

Columns and labels:
Details in all cases: 72 h
[1] = system: MV4-11
Summary of the method: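 Fifteen myeloid leukaemia cell lines were seeded in RPMI 1640 at densities titrated to the linear growth range and placed in 384-well plates with acoustically pre-printed compounds at five tenfold doses from 1 to 10,000 nM, in duplicate. After 72 h at 37 °C with 5% CO2, luminescent ATP viability was normalised to vehicle and to a positive control at 10 µM, and curves were fitted with a four-parameter log-logistic model. The IC50 was obtained from these fits.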

[2] = system: HL-60; test: cell viability (% survival relative to DMSO control); higher = less cytotoxic
Summary of the method: (§1)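 Area under the curve, where listed, was derived from four-parameter log-logistic fits with drc and PharmacoGx. These fits used CellTiter-Glo viability from HL-60 cells in RPMI 1640 with 10% FBS, normalised to DMSO wells and wells holding 10 μM proteasome inhibitor. The full library was rescreened on 384-well plates in duplicate at five tenfold concentrations, 1–10,000 nM, with DMSO or 100 nM of one of three metabolic inhibitors, for 72 h at 37 °C, 5% CO2.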

[3] = system: BV-173; test: cell viability (% survival relative to DMSO control, bortezomib = 0%); higher = less cytotoxic
Summary of the method: (§2)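 Seeding density for each of the 10 AML and 5 CML cell lines was titrated to the linear growth range. Cells went into 384-well plates pre-printed in duplicate with compounds at 1, 10, 100, 1000 or 10000 nM and were held for 72 h at 37 °C with 5% CO2. CellTiter-Glo luminescence then provided the readout. Percent survival is expressed relative to vehicle at 100% and a 10 µM positive control at 0%, averaged over duplicates.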

[4] = system: HEL; test: as above
Summary of the method: as §2

[5] = system: HL-60; test: as above
Summary of the method: as §2

[6] = system: K-562; test: as above
Summary of the method: as §2

[7] = system: KCL-22; test: as above
Summary of the method: as §2

[8] = system: KG-1; test: as above
Summary of the method: as §2

[9] = system: KU-812; test: as above
Summary of the method: as §2

[10] = system: LAMA-84; test: as above
Summary of the method: as §2

[11] = system: ML-2; test: as above
Summary of the method: as §2

[12] = system: MOLM-13; test: as above
Summary of the method: as §2

[13] = system: MV4-11; test: as above
Summary of the method: as §2

[14] = system: Mono-Mac-6; test: as above
Summary of the method: as §2

[15] = system: NOMO-1; test: as above
Summary of the method: as §2

[16] = system: SHI-1; test: as above
Summary of the method: as §2

[17] = system: THP-1; test: as above
Summary of the method: as §2

[18] = system: HL-60; test: area under dose-response curve (viability, 1 nM-10 uM) (fraction (0-1)); higher = more sensitive
Summary of the method: as §1

C[C@H]1O[C@H](O[C@H]2[C@H](O)[C@@H](O)[C@@H](O[C@H]3[C@H](O)[C@@H](O)C(O)O[C@@H]3CO)O[C@@H]2CO)[C@H](O)[C@@H](O)[C@@H]1N[C@H]1C=C(CO)[C@@H](O)[C@H](O)[C@H]1O (mixture of isomers) [Acarbose]
Details	IC50 (cell viability) [nM]
[1]	> 10000

cell viability [%], [2]
Details	0.001 µM	0.01 µM	0.1 µM	1 µM	10 µM
co-treatment: AZD3965 100 nM	112.2	96.77	99	99.3	88.1
co-treatment: DMSO vehicle	100.2	98.3	102	104	97.771
co-treatment: GSK2194069 100 nM	108.6	98.7	97.7	92.59	97.3
co-treatment: pictilisib 100 nM	105	104	101	96.9	102.6

Details	area under dose-response curve, co-treatment: AZD3965 100 nM	area under dose-response curve, co-treatment: DMSO vehicle	area under dose-response curve, co-treatment: GSK2194069 100 nM	area under dose-response curve, co-treatment: pictilisib 100 nM	cell viability, 1 nM [%]	cell viability, 10 nM [%]	cell viability, 100 nM [%]	cell viability, 1000 nM [%]	cell viability, 10000 nM [%]
[3]	–	–	–	–	95.6	99.7	110	103	83.4
[4]	–	–	–	–	117	111	114	88.8	98.8
[5]	–	–	–	–	125	111	122	99.1	106
[6]	–	–	–	–	111	131	88.1	94.9	98.8
[7]	–	–	–	–	116	117	112	86.5	97.2
[8]	–	–	–	–	99.1	107	93.2	105	95.7
[9]	–	–	–	–	91.8	94.5	107	114	93.9
[10]	–	–	–	–	93.4	84.7	108	92.7	93.4
[11]	–	–	–	–	104	102	103	94.8	95.8
[12]	–	–	–	–	133	86.7	106	95.8	94.9
[13]	–	–	–	–	108	73	111	89.1	94.9
[14]	–	–	–	–	101	95.6	102	111	87
[15]	–	–	–	–	98.1	97.7	103	96.1	88.4
[16]	–	–	–	–	116	120	99.8	104	97.7
[17]	–	–	–	–	87.6	107	96.9	95.1	97.1
[18]	< 0.0301	< 0.0301	< 0.0301	< 0.0301	–	–	–	–	–

Fc1ccc(CNc2ncnc3ccc(F)cc23)cc1 [Spautin 1]
Details	IC50 (cell viability) [nM]
[1]	1520

cell viability [%], [2]
Details	0.001 µM	0.01 µM	0.1 µM	1 µM	10 µM
co-treatment: AZD3965 100 nM	78.7	99.98	101	103	71.3
co-treatment: DMSO vehicle	98.11	97.89	109	96.7	78.31
co-treatment: GSK2194069 100 nM	91.31	100	104	89.5	58
co-treatment: pictilisib 100 nM	100	96.8	108	98.7	80.4

Details	area under dose-response curve, co-treatment: AZD3965 100 nM	area under dose-response curve, co-treatment: DMSO vehicle	area under dose-response curve, co-treatment: GSK2194069 100 nM	area under dose-response curve, co-treatment: pictilisib 100 nM	cell viability, 1 nM [%]	cell viability, 10 nM [%]	cell viability, 100 nM [%]	cell viability, 1000 nM [%]	cell viability, 10000 nM [%]
[3]	–	–	–	–	98.3	96.8	110	79.7	35.1
[4]	–	–	–	–	91.3	98.3	94.1	89.4	47.9
[5]	–	–	–	–	105	102	110	117	47.4
[6]	–	–	–	–	103	97	100	69.8	16.9
[7]	–	–	–	–	112	113	108	88.6	61.9
[8]	–	–	–	–	108	98.5	103	66.8	32.6
[9]	–	–	–	–	96.8	96.3	94.5	62.3	12.6
[10]	–	–	–	–	103	103	93.5	66.4	26.7
[11]	–	–	–	–	108	84.7	97	87.9	63.2
[12]	–	–	–	–	93.1	89.7	122	108	50.9
[13]	–	–	–	–	98.8	92.4	102	64.7	33
[14]	–	–	–	–	109	96.1	119	106	59
[15]	–	–	–	–	103	102	110	97.3	77.1
[16]	–	–	–	–	113	100	106	95.9	62.2
[17]	–	–	–	–	95.5	103	103	106	79.1
[18]	< 0.0301	0.0409	0.0623	0.0324	–	–	–	–	–
